Source: patent US20220169628A1 (University of Florida Research Foundation, Incorporated, priority 2019, published 2022)
pIC50: −log10 of the molar value. Like-named read-outs stand apart in the source and are kept apart here.

Assays:
RS4;11 cells = test: Cell viability assay, MTS, 48 h, RS4;11; type: cell-based; conditions: 48 hours, read-out: IC50 (48 hours) RS4;11
Protocol: (§1) Acute lymphoblastic leukemia cells (MOLT-4 and RS4; 11) or small cell lung cancer (NCI-H146 or simply H146) were incubated with increasing concentrations of Bcl-xL degraders for 48 h. Cell viability was measured by tetrazolium-based MTS assay.

MOLT-4 cells = test: Cell viability assay, MTS, 48 h, MOLT-4; type: cell-based; conditions: 48 hours, read-out: IC50 (48 hours) MOLT-4
Protocol: as §1

| pIC50 (RS4;11 cells; Homo sapiens, RS4-11, 48 h) | pIC50 (MOLT-4 cells; Homo sapiens, MOLT-4, 48 h) | Compound | pIC50 (RS4;11 cells) | pIC50 (MOLT-4 cells) |
| --- | --- | --- | --- | --- |
| > 7.30 | > 7.30 | CC1(CNC(=O)COCCOCCNc2cccc3c2C(=O)N(C2CCC(=O)NC2=O)C3=O)CCC(c2ccc(Cl)cc2)=C(CN2CCN(c3ccc(C(=O)NS(=O)(=O)c4ccc(N[C@H](CCN5CCOCC5)CSc5ccccc5)c(S(=O)(=O)C(F)(F)F)c4)cc3)CC2)C1 (stereo partly drawn) [compound 77, 4-(4-((4′-chloro-4-((2-(2-(2-((2-(2,6-dioxopiperidin-3-yl)-1,3-dioxoisoindolin-4-yl)amino)ethoxy)ethoxy)acetamido)methyl)-4-methyl-3,4,5,6-tetrahydro-[1,1′-biphenyl]-2-yl)methyl)piperazin-1-yl)-N-((4-(((R)-4-morpholino-1-(phenylthio)butan-2-yl)amino)-3-((trifluoromethyl)sulfonyl)phenyl)sulfonyl)benzamide] |  |  |
| > 7.30 | > 7.30 | Cc1ncsc1-c1ccc([C@H](C)NC(=O)[C@@H]2C[C@@H](O)CN2C(=O)[C@@H](NC(=O)CCCCCCCC(=O)N2CCN(CC3(C)CCC(c4ccc(Cl)cc4)=C(CN4CCN(c5ccc(C(=O)NS(=O)(=O)c6ccc(N[C@H](CCN7CCOCC7)CSc7ccccc7)c(S(=O)(=O)C(F)(F)F)c6)cc5)CC4)C3)CC2)C(C)(C)C)cc1 (stereo partly drawn) [degrader #18, (2S,4R)-1-((2S)-2-(9-(4-((4′-chloro-4-methyl-6-((4-(4-(((4-(((R)-4-morpholino-1-(phenylthio)butan-2-yl)amino)-3-((trifluoromethyl)sulfonyl)phenyl)sulfonyl)carbamoyl)phenyl)piperazin-1-yl)methyl)-2,3,4,5-tetrahydro-[1,1′-biphenyl]-4-yl)methyl)piperazin-1-yl)-9-oxononanamido)-3,3-dimethylbutanoyl)-4-hydroxy-N—((S)-1-(4-(4-methylthiazol-5-yl)phenyl)ethyl)pyrrolidine-2-carboxamide] |  |  |
|  |  | (2S,4R)-1-((S)-2-(9-(4-(4-chlorophenyl)-5-((4-(4-(((4-(((R)-4-morpholino-1-(phenylthio)butan-2-yl)amino)-3-((trifluoromethyl)sulfonyl)phenyl)sulfonyl)carbamoyl)phenyl)piperazin-1-yl)methyl)-3,6-dihydropyridin-1(2H)-yl)-9-oxononanamido)-3,3-dimethylbutanoyl)-4-hydroxy-N—((S)-1-(4-(4-methylthiazol-5-yl)phenyl)ethyl)pyrrolidine-2-carboxamide [Example 4] | > 7.30 | 6.82 to 7.30 |
| 6.82 to 7.30 | 6.30 to 6.82 | Cc1ncsc1-c1ccc([C@H](C)NC(=O)[C@@H]2C[C@@H](O)CN2C(=O)[C@@H](NC(=O)CCCCCCC(=O)NCCN(C)CC2(C)CCC(c3ccc(Cl)cc3)=C(CN3CCN(c4ccc(C(=O)NS(=O)(=O)c5ccc(N[C@H](CCN6CCOCC6)CSc6ccccc6)c(S(=O)(=O)C(F)(F)F)c5)cc4)CC3)C2)C(C)(C)C)cc1 (stereo partly drawn) [compound 61, N1-(2-(((4′-chloro-4-methyl-6-((4-(4-(((4-(((R)-4-morpholino-1-(phenylthio)butan-2-yl)amino)-3-((trifluoromethyl)sulfonyl)phenyl)sulfonyl)carbamoyl)phenyl)piperazin-1-yl)methyl)-2,3,4,5-tetrahydro-[1,1′-biphenyl]-4-yl)methyl)(methyl)amino)ethyl)-N8-((S)-1-((2S,4R)-4-hydroxy-2-(((S)-1-(4-(4-methylthiazol-5-yl)phenyl)ethyl)carbamoyl)pyrrolidin-1-yl)-3,3-dimethyl-1-oxobutan-2-yl)octanediamide] |  |  |
| 6.82 to 7.30 | 6.82 to 7.30 | Cc1ncsc1-c1ccc([C@H](C)NC(=O)[C@@H]2C[C@@H](O)CN2C(=O)[C@@H](NC(=O)CCCCCCCCCCC(=O)N2CCC(c3ccc(Cl)cc3)=C(CN3CCN(c4ccc(C(=O)NS(=O)(=O)c5ccc(N[C@H](CCN6CCOCC6)CSc6ccccc6)c(S(=O)(=O)C(F)(F)F)c5)cc4)CC3)C2)C(C)(C)C)cc1 [compound 85, (2S,4R)-1-((S)-2-(12-(4-(4-chlorophenyl)-5-((4-(4-(((4-(((R)-4-morpholino-1-(phenylthio)butan-2-yl)amino)-3-((trifluoromethyl)sulfonyl)phenyl)sulfonyl)carbamoyl)phenyl)piperazin-1-yl)methyl)-3,6-dihydropyridin-1(2H)-yl)-12-oxododecanamido)-3,3-dimethylbutanoyl)-4-hydroxy-N—((S)-1-(4-(4-methylthiazol-5-yl)phenyl)ethyl)pyrrolidine-2-carboxamide] |  |  |
| > 7.30 | 6.82 to 7.30 | Cc1ncsc1-c1ccc([C@H](C)NC(=O)[C@@H]2C[C@@H](O)CN2C(=O)[C@@H](NC(=O)CCCCCCC(=O)N2C[C@@H]3C[C@H]2CN3CC2(C)CCC(c3ccc(Cl)cc3)=C(CN3CCN(c4ccc(C(=O)NS(=O)(=O)c5ccc(N[C@H](CCN6CCOCC6)CSc6ccccc6)c(S(=O)(=O)C(F)(F)F)c5)cc4)CC3)C2)C(C)(C)C)cc1 (stereo partly shown) [degrader #45] |  |  |
|  |  | (2S,4R)-1-((S)-2-(7-(4-(4-chlorophenyl)-5-((4-(4-(((4-(((R)-4-morpholino-1-(phenylthio)butan-2-yl)amino)-3-((trifluoromethyl)sulfonyl)phenyl)sulfonyl)carbamoyl)phenyl)piperazin-1-yl)methyl)-3,6-dihydropyridin-1(2H)-yl)-7-oxoheptanamido)-3,3-dimethylbutanoyl)-4-hydroxy-N—((S)-1-(4-(4-methylthiazol-5-yl)phenyl)ethyl)pyrrolidine-2-carboxamide [Example 2] | 6.30 to 6.82 | 6.30 to 6.82 |
| > 7.30 | > 7.30 | Cc1ncsc1-c1ccc([C@H](C)NC(=O)[C@@H]2C[C@@H](O)CN2C(=O)[C@@H](NC(=O)CCCCCCC(=O)N2CCC3(CCN(CC4(C)CCC(c5ccc(Cl)cc5)=C(CN5CCN(c6ccc(C(=O)NS(=O)(=O)c7ccc(N[C@H](CCN8CCOCC8)CSc8ccccc8)c(S(=O)(=O)C(F)(F)F)c7)cc6)CC5)C4)CC3)CC2)C(C)(C)C)cc1 (stereo partly drawn) [degrader #29, (2S,4R)-1-((2S)-2-(8-(9-((4′-chloro-4-methyl-6-((4-(4-(((4-(((R)-4-morpholino-1-(phenylthio)butan-2-yl)amino)-3-((trifluoromethyl)sulfonyl)phenyl)sulfonyl)carbamoyl)phenyl)piperazin-1-yl)methyl)-2,3,4,5-tetrahydro-[1,1′-biphenyl]-4-yl)methyl)-3,9-diazaspiro[5.5]undecan-3-yl)-8-oxooctanamido)-3,3-dimethylbutanoyl)-4-hydroxy-N—((S)-1-(4-(4-methylthiazol-5-yl)phenyl)ethyl)pyrrolidine-2-carboxamide] |  |  |
| > 7.30 | > 7.30 | Cc1ncsc1-c1ccc([C@H](C)NC(=O)[C@@H]2C[C@@H](O)CN2C(=O)[C@@H](NC(=O)CCCCCCCC(=O)N2CCN(C(=O)C3(C)CCC(c4ccc(Cl)cc4)=C(CN4CCN(c5ccc(C(=O)NS(=O)(=O)c6ccc(N[C@H](CCN7CCOCC7)CSc7ccccc7)c(S(=O)(=O)C(F)(F)F)c6)cc5)CC4)C3)CC2)C(C)(C)C)cc1 (stereo partly drawn) [compound 66, (2S,4R)-1-((2S)-2-(9-(4-(4′-chloro-4-methyl-6-((4-(4-(((4-(((R)-4-morpholino-1-(phenylthio)butan-2-yl)amino)-3-((trifluoromethyl)sulfonyl)phenyl)sulfonyl)carbamoyl)phenyl)piperazin-1-yl)methyl)-2,3,4,5-tetrahydro-[1,1′-biphenyl]-4-carbonyl)piperazin-1-yl)-9-oxononanamido)-3,3-dimethylbutanoyl)-4-hydroxy-N—((S)-1-(4-(4-methylthiazol-5-yl)phenyl)ethyl)pyrrolidine-2-carboxamide] |  |  |
| 6.82 to 7.30 | 6.82 to 7.30 | Cc1ncsc1-c1ccc([C@H](C)NC(=O)[C@@H]2C[C@@H](O)CN2C(=O)[C@@H](NC(=O)CN2CCN(CC3(C)CCC(c4ccc(Cl)cc4)=C(CN4CCN(c5ccc(C(=O)NS(=O)(=O)c6ccc(N[C@H](CCN7CCOCC7)CSc7ccccc7)c(S(=O)(=O)C(F)(F)F)c6)cc5)CC4)C3)CC2)C(C)(C)C)cc1 (stereo partly drawn) [compound 67, (2S,4R)-1-((2S)-2-(2-(4-((4′-chloro-4-methyl-6-((4-(4-(((4-(((R)-4-morpholino-1-(phenylthio)butan-2-yl)amino)-3-((trifluoromethyl)sulfonyl)phenyl)sulfonyl)carbamoyl)phenyl)piperazin-1-yl)methyl)-2,3,4,5-tetrahydro-[1,1′-biphenyl]-4-yl)methyl)piperazin-1-yl)acetamido)-3,3-dimethylbutanoyl)-4-hydroxy-N—((S)-1-(4-(4-methylthiazol-5-yl)phenyl)ethyl)pyrrolidine-2-carboxamide] |  |  |
| 6.82 to 7.30 | 6.82 to 7.30 | Cc1ncsc1-c1ccc([C@H](C)NC(=O)[C@@H]2C[C@@H](O)CN2C(=O)[C@@H](NC(=O)CCCCCCCCC(=O)N2CCN(CC3(C)CCC(c4ccc(Cl)cc4)=C(CN4CCN(c5ccc(C(=O)NS(=O)(=O)c6ccc(N[C@H](CCN7CCOCC7)CSc7ccccc7)c(S(=O)(=O)C(F)(F)F)c6)cc5)CC4)C3)CC2)C(C)(C)C)cc1 (stereo partly drawn) [degrader #19, (2S,4R)-1-((2S)-2-(10-(4-((4′-chloro-4-methyl-6-((4-(4-(((4-(((R)-4-morpholino-1-(phenylthio)butan-2-yl)amino)-3-((trifluoromethyl)sulfonyl)phenyl)sulfonyl)carbamoyl)phenyl)piperazin-1-yl)methyl)-2,3,4,5-tetrahydro-[1,1′-biphenyl]-4-yl)methyl)piperazin-1-yl)-10-oxodecanamido)-3,3-dimethylbutanoyl)-4-hydroxy-N—((S)-1-(4-(4-methylthiazol-5-yl)phenyl)ethyl)pyrrolidine-2-carboxamide] |  |  |
